From US11980595B2, “Preventive or therapeutic agent and pharmaceutical composition for inflammatory diseases or bone diseases” (National University Corporation Chiba University, priority 2018, dated 2024)

How the values were obtained:
[1] = test system: social defeat stress mice; test: Behavioral rating (tail suspension, forced swimming, sucrose preference tests) in social defeat stress mice; settings: Experimental Example 11, 10 mg/kg i.p. once on D12, tests D12-D14, compared to saline
[2] = test system: RANKL; test: Plasma RANKL and OPG/RANKL ratio in social defeat stress mice (ELISA); settings: for RANKL concentration in plasma / OPG/RANKL ratio: compared to saline; for therapeutic effect (restoring abnormally high expression of RANKL to a normal value): summary of Experimental Example 11, 10 mg/kg i.p. once; for restoring abnormally high expression of RANKL to a normal value: summary of Experimental Example 6, 10 mg/kg i.p. once
[3] = test system: social defeat stress mice; test: Femur bone density by X-ray CT in social defeat stress mice; type: in vivo; settings: Experimental Example 11, 10 mg/kg i.p. once, D15, compared to saline
[4] = test system: Interleukin (IL)-6; test: Inflammatory cytokine IL-6 in plasma of DSS ulcerative colitis model mice (ELISA); type: in vivo; settings: for IL-6 concentration in blood: 3% DSS mice, plasma day 15, compared to DSS+saline
Excerpt: Furthermore, after the blood collection was completed, the mice in each group were euthanized by exsanguination under isoflurane anesthesia.
(§1) Interleukin (IL)-6 was quantified as the inflammatory cytokine. IL-6 was quantified by ELISA method using a commercially available kit.
Furthermore, after blood collection was completed, the mice in each group were euthanized by exsanguination under isoflurane anesthesia.
as §1

[5] = test system: DSS-treated mice, the ulcerative colitis animal model; test: Disease condition score in DSS ulcerative colitis model mice; settings: for disease condition score: 3% DSS mice, scored day 7, 10, 12, 14
[6] = test system: DSS-treated mice, the ulcerative colitis animal model; test: Colonic inflammation score in DSS ulcerative colitis model mice; type: in vivo; settings: 3% DSS mice, 10 mg/kg i.p. once a day for 14 days, day 15
Description: The mice from each group that had been euthanized were resected from cecum to anus, and a length from directly below the cecum to the anus was measured. Subsequently, the lumen of the colon was washed with saline, and after washing, an incision was made in the longitudinal direction, and a colonic inflammation score was determined according to the following evaluation criteria.
The mice from each group that had been euthanized were resected from the cecum to the anus, and the length from directly below the cecum to the anus was measured.

[7] = test system: sRANKL-administered mice; test: Femur bone density by X-ray CT in sRANKL-administered mice (osteoporosis model); settings: Experimental Example 12, sRANKL (1 mg/kg) mice, 10 mg/kg i.p. 30 minutes before sRANKL and 24 and 48 hours after
[8] = test system: ovariectomized mice; test: Femur bone density by X-ray CT in ovariectomized mice (osteoporosis model); type: in vivo; settings: Experimental Example 13, 10 mg/kg i.p. Monday and Thursday, 6 weeks after surgery, compared to saline
Excerpt: The effect of R-ketamine was examined using ovariectomized mice as a model animal for osteoporosis.

[9] = test system: NMDA receptors; settings: S-ketamine compared to R-ketamine; cited from earlier work
[10] = Experimental Example 11, 10 mg/kg i.p. once, plasma three days after (D15)
[11] = Experimental Example 6, 10 mg/kg i.p. once, four days after
[12] = Experimental Example 6, 10 mg/kg i.p. once, plasma four days after
[13] = Experimental Example 4, 10 mg/kg i.p. once a day for 14 days
[14] = Experimental Example 2, 10 mg/kg i.p. once a day for 14 days
[15] = summary of Experimental Examples 1 to 4, intraperitoneal 10 mg/kg

Row | Compound | antidepressant effect (tail suspension test, forced swimming test, sucrose preference test) [1] | RANKL concentration in plasma [2, 10] | therapeutic effect (restoring abnormally high expression of RANKL to a normal value) [2] | cortical bone density [3] | total bone density [3] | OPG/RANKL ratio [2, 11] | RANKL concentration in plasma [2, 12] | restoring abnormally high expression of RANKL to a normal value [2] | IL-6 concentration in blood [4, 13] | disease condition score [5, 14] | therapeutic effect in ulcerative colitis animal model [5, 15] | other results
1 | N[C@@]1(c2ccccc2Cl)CCC[C@@H](O)C1=O [2R,6R-HNK, 2R,6R-hydroxynorketamine] | no antidepressant effect | a significant change to RANKL concentration in plasma was not observed | no therapeutic effect was observed | no significant change | no significant change | – | – | – | – | – | – | OPG/RANKL ratio ([2]; Experimental Example 11, 10 mg/kg i.p. once, three days after (D15), 10 mg/kg): a significant change to the OPG/RANKL ratio was not observed
2 | Nc1ccc(O)c(C(=O)O)c1 [5-ASA, 5-aminosalicylic acid, reference compound] | – | – | – | – | – | – | – | – | – | – | – | IL-6 concentration in blood ([4]; Experimental Example 10, 50 mg/kg i.p. once a day for 14 days): a significant decrease of IL-6 concentration in blood was not observed; disease condition score ([5]; Experimental Example 8, 50 mg/kg i.p. once a day for 14 days, compared to DSS and saline): improvement tendency of the disease condition score was observed in the “DSS+5-ASA” group, but it was not significant; therapeutic effect in ulcerative colitis animal model ([5]; summary of Experimental Examples 7 to 10, intraperitoneal 50 mg/kg): extremely weak therapeutic effect
3 | CN[C@@]1(c2ccccc2Cl)CCCCC1=O [R-ketamine] | significantly higher antidepressant effect | significantly decreased | able to restore an abnormally high expression of RANKL to a normal value | significantly improved | significantly improved | significantly increased | significantly decreased | able to restore an abnormally high expression of RANKL to a normal value | significant decrease of IL-6 concentration in blood | significant improvement of the disease condition score | exhibited a therapeutic effect | colonic inflammation score ([6]; Experimental Example 3, compared to DSS+S-ketamine group): significant improvement of the colonic inflammation score; colonic inflammation score ([6]; Experimental Example 9, compared to DSS+5-ASA (50 mg/kg) group): significant improvement of the colonic inflammation score; cancellous bone density [7]: significantly increased; cortical bone density ([7]; compared to saline): significantly improved; total bone density ([7]; compared to saline): significantly improved; OPG/RANKL ratio ([2]; Experimental Example 11, 10 mg/kg i.p. once, three days after (D15)): significantly increased; effect of reducing IL-6 in blood, R-ketamine compared to S-ketamine [4, 13]: higher than when administering S-ketamine; IL-6 concentration in blood ([4]; Experimental Example 10, 10 mg/kg i.p. once a day for 14 days): a significant decrease of IL-6 concentration in blood was observed; disease condition score ([5]; Experimental Example 8, 10 mg/kg i.p. once a day for 14 days, compared to DSS and saline): significant improvement of the disease condition score; therapeutic effect in ulcerative colitis animal model ([5]; summary of Experimental Examples 7 to 10, intraperitoneal 10 mg/kg): significant therapeutic effect; cancellous bone density [8]: tended to increase along with R-ketamine administration, but it was not statistically significant; cortical bone density [8]: significantly improved; plane bone density [8]: tended to increase along with R-ketamine administration, but it was not statistically significant; total bone density [8]: significantly improved
4 | CN[C@]1(c2ccccc2Cl)CCCCC1=O [S-ketamine] | – | – | – | – | – | a significant change to the OPG/RANKL ratio was not observed | a significant change to RANKL concentration in plasma was not observed | such an effect was not observed | significant decrease of IL-6 concentration in blood | improvement tendency of the disease condition score was observed in the “DSS+S-ketamine” group, but it was not significant | exhibited a tendency for a therapeutic effect in the ulcerative colitis animal model, but the effect was weaker than that of R-ketamine | affinity for NMDA receptors [9]: stronger affinity for NMDA receptors than R-ketamine
